Consider four molecules from patent US20120101147A1, “INHIBITION OF HDAC2 TO PROMOTE MEMORY” (The General Hospital Corporation d/b/a Massachusetts …, priority 2008, published 2012).

“Also recorded” adds a separate entry of the source.

The target in one data set is T1, HDAC6 (Homo sapiens, UniProt Q9UBN7).
T1 sequence (Q9UBN7 1-1215): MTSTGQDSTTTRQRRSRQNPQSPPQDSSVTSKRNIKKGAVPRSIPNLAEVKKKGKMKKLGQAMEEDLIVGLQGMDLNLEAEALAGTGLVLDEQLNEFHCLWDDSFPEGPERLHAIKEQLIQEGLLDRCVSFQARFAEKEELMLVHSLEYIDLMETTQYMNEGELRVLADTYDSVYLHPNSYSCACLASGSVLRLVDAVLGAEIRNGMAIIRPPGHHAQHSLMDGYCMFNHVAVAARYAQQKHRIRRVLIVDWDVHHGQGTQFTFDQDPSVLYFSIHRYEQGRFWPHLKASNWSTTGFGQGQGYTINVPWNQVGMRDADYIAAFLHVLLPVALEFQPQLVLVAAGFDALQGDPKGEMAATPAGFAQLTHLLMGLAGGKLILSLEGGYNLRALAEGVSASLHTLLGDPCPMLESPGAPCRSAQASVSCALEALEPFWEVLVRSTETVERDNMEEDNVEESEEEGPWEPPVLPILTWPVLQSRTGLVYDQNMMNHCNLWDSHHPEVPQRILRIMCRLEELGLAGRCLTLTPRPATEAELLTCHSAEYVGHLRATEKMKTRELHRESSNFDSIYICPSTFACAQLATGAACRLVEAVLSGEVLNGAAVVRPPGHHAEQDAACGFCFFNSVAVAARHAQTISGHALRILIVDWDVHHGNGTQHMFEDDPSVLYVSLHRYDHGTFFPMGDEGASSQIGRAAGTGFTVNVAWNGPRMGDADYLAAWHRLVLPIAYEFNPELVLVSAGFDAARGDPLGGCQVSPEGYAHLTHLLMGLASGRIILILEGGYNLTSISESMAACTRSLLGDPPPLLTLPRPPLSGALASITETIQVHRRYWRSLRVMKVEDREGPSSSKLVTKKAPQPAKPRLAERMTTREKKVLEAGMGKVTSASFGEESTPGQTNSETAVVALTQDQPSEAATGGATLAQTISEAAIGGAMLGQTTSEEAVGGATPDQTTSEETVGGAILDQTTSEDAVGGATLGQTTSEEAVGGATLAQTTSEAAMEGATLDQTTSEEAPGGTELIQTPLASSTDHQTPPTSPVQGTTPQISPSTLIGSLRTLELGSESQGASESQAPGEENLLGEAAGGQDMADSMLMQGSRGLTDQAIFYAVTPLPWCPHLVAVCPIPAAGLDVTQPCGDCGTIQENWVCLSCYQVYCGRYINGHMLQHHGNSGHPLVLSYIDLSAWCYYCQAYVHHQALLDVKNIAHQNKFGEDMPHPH
To be noted: cited from earlier work.

The test system of the next data set is tetra-acetylated H4. Kind of data set: Western blot of tetra-acetylated H4 in primary striatal cells. In kind it is cell-based, mouse. Conditions: relative to DMSO controls. As to the method:
(§1) Four compounds were tested including CI-994 (BRD-3696) and SAHA. […] BRD-6929 and BRD-5298 treatment results in a 2-5 fold increase in both marks at 1 and 10 uM.
For orientation: In western blotting, separated proteins are transferred to a membrane and probed.

In the next data set the test system is tetra-acetylated H2B. Description: Western blot of tetra-acetylated H2B in primary striatal cells. In kind it is cell-based, mouse. Conditions: relative to DMSO controls. As to the method: as §1
Data set [1] concerns primary neuronal cultures. Description: Immunofluorescence: overall cell number in primary neuronal cultures. In kind it is cell-based, mouse. Conditions: 1 and 10 uM; 6 h; primary neuronal cell cultures. As to the method: (§2) 1) Compounds were pin transferred from 384-well plates (Abgene) using a 185 nl pin tool using a no touch bottom protocol.
(§3) 1) Media was aspirated using a plate washer (Tecan) protocol that leaves ˜5 ul residual volume and without touching the bottom of plates); or alternatively, wells were gently aspirated to remove media with 12-channel aspirator wand.
(§4) 2) A multichannel pipet or use liquid handling system (e.g. Combi, standard tubing; slow speed) was used to add 75 ul formaldehyde (4% in PBS) and wells incubated 10 min at room temperature.
(§5) 3) Formaldehyde was aspirated and cells rinsed 3 times with 100 ul PBS;
(§6) 4) PBS was aspirated and 100 ul blocking/permeablization buffer (0.1% Triton-X100, 2% BSA, in PBS) added and wells incubate 1 hour at room temperature.
(§7) 5) Blocking buffer was aspirated and 50 ul primary antibody diluted 1:500 in blocking buffer was added and wells incubated overnight at 4 degrees.
(§8) 1) Primary antibody was aspirated and wells rinsed 3 times with 100 ul blocking buffer
(§9) 2) 50 ul of secondary antibody diluted 1:500 and with Hoeschst (1:1000 from 10 mg/mL (16 mM) stock) added and wells incubated 1.5 hours at room temperature covered in foil to prevent photobleaching.
(§10) 3) Wells were rinsed 3 times with 100 ul PBS, and a 100 uls of PBS added and the plates, sealed
(§11) 4) Plates were then read on Acumen/IX Micro

Another data set has as its system H2B acetylation. Description: Immunofluorescence: H2B acetylation in primary neuronal cell cultures. In kind it is cell-based, mouse. Conditions: 1 and 10 uM; 6 h; primary neuronal cell cultures. As to the method:
as §2, §3, §4, §5, §6, §7, §8, §9, §10, §11

The subject of a further data set is mice. Kind of data set: Context-dependent fear conditioning memory test. In kind it is in vivo, mouse. As to the method:
Fear conditioning tests Context-dependent fear conditioning. Training consists of a 3 min exposure of mice to the conditioning box (context) followed by a foot shock (2 sec, 0.5/0.8/1.0 mA, constant current). The memory test was performed 24 hr later by re-exposing the mice for 3 min into the conditioning context. Freezing, defined as a lack of movement except for heart beat and respiration associated with a crouching posture, was recorded every 10 sec by two trained observers (one was unaware of the experimental conditions) during 3 min (a total of 18 sampling intervals). The number of observations indicating freezing obtained as a mean from both observers was expressed as a percentage of the total number of observations.
Chemical administration Suberoylanilide hydroxamic acid (SAHA) was synthesized as described previously in WO 93/07148 PTC/US92/08454. Sodium butyrate was purchased from Sigma (cat.B5887). SAHA and WT-161 were dissolved in DMSO as stock solutions and diluted in saline just before injection. Sodium butyrate was prepared in saline. Mice received intraperitoneal injection daily with either SAHA or saline for 10 days or 21 days.
C57/BL6 WT mice were injected with vehicle or BRD-6929 for 10 days. On day 11, mice were trained in contextual fear conditioning paradigm (Training consisted of a 3 min exposure of mice to the conditioning box (context, TSE) followed by a foot shock (2 sec, 0.8 mA, constant current). One hour after training, mice were injected with BRD-6929 or vehicle. On day 12, mice were returned to the training box and the freezing behavior were monitored and recorded.

For data set [2], the system named is CA1 region of hippocampus. Description: Golgi staining and synaptophysin immunostaining of hippocampal CA1. The format is in vivo, mouse. As to the method: Memory test for mice with contextual fear conditioning training (foot shock 1.0 mA). HDAC2OE mice (SAHA group, n=12; saline group, n=12) and WT littermates (SAHA group, n=12; saline group, n=15) were treated with saline or SAHA (25 mg/kg, i.p.) for 10 days before memory test. b. CA1 region (pyramidal neuron layer; stratum radiatum (s.r.)) from WT and HDAC2OE mice received chronic SAHA treatment or saline treatment and were observed through immunostaining. Average optical signals for Ac-lysine were measured on pyramidal neuron layer; SVP signals were measured from s.r. c. Images of Golgi staining from CA1 region of hippocampus. For WT, naive, n=23; WT, SAHA, n=41; HDAC2OE, naïve, n=21; HDAC2OE, SAHA, n=32. Scale bar 10 μm. d. Memory test for mice with contextual fear conditioning training (foot shock 0.5 mA) after 10 day SAHA injection (25 mg/kg, i.p.). WT mice (SAHA, n=10; saline, n=10) and HDAC2 KO mice (SAHA, n=8; saline, n=8). e. CA1 region from HDAC2KO mice received chronic SAHA treatment or saline treatment and were observed through immunostaining. SVP-singles were quantified in the s.r. Saline, n=15; SAHA, n=22. Scale bar=50 μm. f. Images of Golgi staining of CA1 region of hippocampus from HDAC2KO mice. HDAC2KO, SAHA, n=24; HDAC2KO, naïve, n=27. *, p<0.05; **, p<0.005; ***,p<0.001, unpaired student t-test error bars indicate s.e.m.
Golgi impregnation Golgi-Cox-stained brains were cut to 200 μm thick cross-sections with vibratome and analyzed using a Zeiss 200 Axiovert microscope and Openlab software. The number of apical and basal spines on hippocampal CA1 pyramidal neurons was counted blind to the genotype. For each experimental group, a minimum of 10 cells per slice (animal number n=3) were analyzed. CA1 hippocampal neurons within the region −1.4 mm to −1.6 mm (relative to the bregma position) were included for the analysis.
Immunohistochemistry Immunohistochemical analysis was performed as described before (Guan, J. S., et al., Cell, 2005. 122(4): p. 619-31.). Antibodies were used in a 1:1000 concentration. […] Staining was quantified using LSMetal0 software (Zeiss).

For another data set, the system named is hippocampus. Description: Long-term potentiation (LTP) in hippocampal slices of treated mice. In kind it is in vivo, mouse. To be noted: 25 mg/kg i.p. 10 days, one HFS 1×100 Hz. As to the method: FIG. 6 SAHA treatment facilitates LTP in WT but not HDAC2KO hippocampus. a-b. One-month-old HDAC2KO mice and their WT littermates were injected with SAHA (25 mg/kg, i.p.) or saline for 10 days. An additional injection was introduced 30 minutes before sacrifice. Long-term potentiation (LTP) was induced by one HFS stimulation (1×100 Hz, 1 s) of Schaffer collaterals. a. […] (**, p<0.005, two-way ANOVA).
Electrophysiological analysis. 3-6 months old HDAC2OE, HDAC2KO or their littermates were killed by cervical dislocation, and hippocampi were rapidly dissected in iced oxygenated artificial CSF (ACSF). Transverse hippocampal slices, 400 μm thick were placed in a chamber and continuously perfused with oxygenated ACSF. A bipolar stimulating electrodes (0.002-inch-diameter nichrome wire; A-M Systems) placed in the stratum radiatum was used to elicit action potentials in CA3 axons. An ACSF-filled glass microelectrode with a resistance between 0.5 and 3 MΩ was placed in the stratum radiatum region of CA1 and was used to record the field excitatory post-synaptic potentials (fEPSP). Data were acquired using HEKA EPC10 and analyzed by patchmaster (HEKA). […] Baseline responses were recorded for 20 min. fEPSP were evoked at the CA1 synapses by stimulating Schaffer collaterals at a low frequency (2 per min) to establish a stable baseline. […]

Another data set relates to c-fos. Kind of data set: c-fos positive cells after fear conditioning training. The format is in vivo, mouse. Conditions: compared to saline treated group. The text has this: Studies described in the Examples below were also undertaken to determine which of the 11 histone deacetylases is responsible for the observed function and to identify selective HDAC inhibitors for enhancing memory. […] Remarkably, HDAC2 neuron specific knockout mice (loss of function) display enhanced learning. […] Thus it was unexpected that HDAC1/HDAC2 inhibitors would be useful for enhancing memory.

Setting [3] is: HDAC2KO mice, chronic treatment.

Regarding `CCCC(=O)[O-].[Na+]` [SB, sodium butyrate], the “inhibition of HDAC6 activity in vitro” value on HDAC6 is “does not inhibit”.
`CN1CCN(CCNC(=O)c2ccc(C(=O)Nc3cc(-c4cccs4)ccc3N)cc2)CC1` [BRD-5298, N1-(2-amino-5-(thiophen-2-yl)phenyl)-N4-(2-(4-methylpiperazin-1-yl)ethyl)terephthalamide]: the “tetra-acetylated H4” value in the data set with tetra-acetylated H4 is on record as “significantly increased”. In addition, in the data set on tetra-acetylated H2B, the “tetra-acetylated H2B” value is “trend toward increasing”. Also, in [1], the overall cell number result is given as “do not cause an increase or decrease”. In addition, the H2B acetylation result with H2B acetylation is on record as “significant increase”.
In the case of `O=C(CCCCCCC(=O)Nc1ccccc1)NO` [SAHA, suberoylanilide hydroxamic acid], the freezing behavior with mice (HDAC2KO mice, 25 mg/kg i.p. 10 days, foot shock 0.5 mA, n=8) is listed as 52.1±9.8%; in the data set with mice (HDAC2OE mice, 25 mg/kg i.p. daily 10 days, foot shock 1.0 mA, n=12) it was 66.7±5.1%; with mice (WT control mice, 25 mg/kg i.p. 10 days, foot shock 0.5 mA, n=10), 45.0±6.9%; in the data set with mice (WT control mice, 25 mg/kg i.p. daily 10 days, foot shock 1.0 mA, n=12) it was 63.9±4.2%. Besides, in data set [2] (setting [3]), the “dendritic spine density of CA1 neurons” value was “not significantly affected”. Also, the “synaptophysin staining in the stratum radiatum” value in data set [2] (setting [3]) is “not significantly affected”. For the same molecule, the “decreased dendritic spine and synapses phenotype” value in [2] (HDAC2OE mice, chronic treatment 25 mg/kg i.p.) is “completely abrogated”. Besides, the LTP entry was “did not have a detectable effect; also recorded: No significant difference” with hippocampus (HDAC2 KO hippocampus) and “modestly increased; also recorded: significant increase” in the data set with hippocampus (WT hippocampus).
As for `Nc1ccccc1NC(=O)c1ccc(CNC(=O)OCc2cccnc2)cc1` [MS-275], the “associative learning in mice” value in the data set with mice (mouse, in vivo) is recorded as “did not facilitate”. Moreover, in the data set with c-fos, the “number of c-fos positive cells after fear conditioning training” value is listed as “lower number”.
